Measured values from patent US12065445B2, “CDK2 inhibitors and methods of using the same” (Cedilla Therapeutics, Inc., priority 2021, dated 2024).

What was measured:
[1] = system: Kuramochi cells labeled with mApple-H2B; test: IncuCyte Cell Proliferation Assay; assay type: cell-based
In short: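 Cells imaged at 0 and 72 h after compound treatment (10 points, ½ log dilution, 20 μM top), with fluorescent nuclei counted. Fold change in count was normalized to DMSO wells and fitted to dose-response curves to give GI50.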

[2] = target: T1, CDK2/Cyclin E1 (Homo sapiens, UniProt P24941); test: CDK2/Cyclin E1 Caliper Assay (LabChip EZ Reader mobility shift); assay type: biochemical; settings: read-out: Caliper Assay (CDK2/CCNE1): IC50
T1 construct: purchased Eurofins 14-475
Procedure: Inhibition of CDK2/Cyclin E1 activity in the presence of compounds of the present disclosure was evaluated using a Caliper LabChip® EZ Reader mobility shift assay. In the assay, CDK2/Cyclin E1 (Eurofins, 14-475) catalyzed the phosphorylation of a fluorescently tagged peptide 5-FAM-QSPKKG-CONH2 (PerkinElmer, FL Peptide 18) which induced a difference in capillary electrophoresis mobility. The peptide substrate and product were measured, and the conversion ratio was used to determine the inhibition (as % activity and IC50 values) of CDK2/Cyclin E1. Reactions contained 50 mM HEPES pH 7.5, 10 mM MgCl2, 1 mM EDTA, 2 mM DTT, 0.01% Brij35, 0.5 mg/mL BSA, 0.1% DMSO, 2.5 nM CDK2/Cyclin E1, 100 μM ATP, and 1.5 μM fluorescent peptide substrate.
Dose titrations of inhibitors in 100% DMSO were combined with 3.25 nM CDK2/Cyclin E1 and 130 μM of ATP in reaction buffer. The mixtures were incubated for 30 minutes before the addition of fluorescent peptide substrate to initiate the kinase reaction. The final conditions were 2.5 nM CDK2/Cyclin E1, 100 μM ATP, and 1.5 μM fluorescent peptide. The reactions were stopped after 100 minutes with the addition of EDTA (400 mM final EDTA concentration). The stopped reactions were analyzed on a Caliper LabChip® EZ Reader II. The conversion ratios were normalized to yield % activity, plotted against compound concentration, and fit to a four-parameter equation to determine the IC50 for each compound.

[3] = system: Kuramochi cells; test: BrdU Cell Proliferation Assay; assay type: cell-based; settings: read-out: BrdU - KURAMOCHI.1: IC50
In short: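 Kuramochi cells were seeded at 2,000 cells/well, adhered overnight, then treated with a 10-point, 3-fold compound dilution series for 4 days. Proliferation was measured by a 1-hour BrdU pulse, anti-BrdU peroxidase colorimetric ELISA and 450 nm absorbance. Values were background-subtracted and normalized to DMSO wells.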

Structure (SMILES) | IC50 [2] | IC50 ([1]; 72 hours) | IC50 [3] | IC50 ([1]; 72 h)
CNC(=O)[C@@H](NC(=O)[C@@H]1CN(Cc2cccnc2)CC12CN(C(=O)[C@H]1CC1(C)C)C2)[C@@H](C)OCc1ccccc1 [I-49A] | > 10000 nM |  | > 10 µM | 
CNC(=O)[C@@H](NC(=O)[C@H]1CN(CC2CCOCC2)CC12CN(C(=O)[C@H]1CC1(C)C)C2)[C@@H](C)OCc1ccccc1 [I-68B] | > 10000 nM |  | > 10 µM | 
CNC(=O)[C@@H](NC(=O)[C@@H]1CN(C(=O)c2cnn(Cc3ccccc3)c2)CC12CN(C(=O)C1(C(C)C)CC1)C2)[C@@H](C)OCc1ccccc1 [I-109A] | > 10000 nM |  | > 10 µM | 
CNC(=O)[C@H](COCc1ccccc1)NC(=O)[C@H]1CN(C(=O)c2cnn(Cc3ccccc3)c2)CC12CN(C(=O)C1(C(F)(F)F)CC1)C2 [I-113B] | > 10000 nM |  | > 10 µM | 
C[C@@H](OCC1CCCCC1)[C@H](NC(=O)[C@H]1CN(C(=O)c2cnn(Cc3ccccc3)c2)CC12CN(C(=O)[C@H]1CC1(C)C)C2)C(=O)N1CCC[C@H](N)C1 [I-150B] | 1000 to 10000 nM |  | > 10 µM | 
C[C@@H]1C[C@H](C)CN(C(=O)[C@@H](NC(=O)[C@H]2CN(C(=O)c3cn[nH]c3)CC23CN(C(=O)[C@H]2CC2(C)C)C3)[C@@H](C)OCC2CCCCC2)C1 [I-173B] | 1000 to 10000 nM |  | > 10 µM | 
C[C@@H](OCC1CCCCC1)[C@H](NC(=O)[C@H]1CN(C(=O)c2cncs2)CC12CN(C(=O)[C@H]1CC1(C)C)C2)C(=O)N1CCC(F)(F)CC1 [I-192B] | 1000 to 10000 nM |  | > 10 µM | 
Cc1ccc(CNC(=O)[C@@H]2CN(C(=O)c3cnn(Cc4ccccc4F)c3)CC23CN(C(=O)[C@H]2CC2(C)C)C3)nn1 [I-407] | > 10000 nM |  |  | > 20 µM
CNC(=O)[C@@H](NC(=O)[C@@H]1CN(C(=O)c2cncs2)CC12CN(C(=O)[C@H]1CC1(C)C)C2)c1nnc(C2CCCCC2)o1 [I-429] | 1000 to 10000 nM |  | > 10 µM | > 20 µM

Continued, in another order:

IC50 [2] | Structure (SMILES) | IC50 ([1]; 72 hours) | IC50 [3] | IC50 ([1]; 72 h)
100 to 1000 nM | C[C@@H](OCC1CCC(F)(F)CC1)[C@H](NC(=O)C1CN(C(=O)c2cnn(Cc3ccc(F)cc3)c2)CC12CN(C(=O)C1(C(F)(F)F)CC1)C2)C(=O)N1CCC(F)(F)CC1 (single isomer, unassigned) [I-190B] | 5 to 20 µM | 0.5 to 5 µM | 
100 to 1000 nM | CNC(=O)[C@@H](NC(=O)[C@@H]1CN(C(=O)c2cnco2)CC12CN(C(=O)[C@H]1CC1(C)C)C2)[C@@H](C)OCc1ccccc1 [I-39A] |  | > 10 µM | 
10 to 100 nM | C[C@@H](OCc1ccccc1)[C@H](NC(=O)C1CN(C(=O)c2cnn(Cc3ccccc3)c2)CC12CN(C(=O)C1CC1(C)C)C2)C(=O)NCCCCCNC(=O)OC(C)(C)C (some centres unmarked) [I-52] |  | 0.5 to 5 µM | 0.5 to 5 µM
10 to 100 nM | C[C@@H](OCc1ccccc1)[C@H](NC(=O)C1CN(C(=O)c2cnn(Cc3ccccc3)c2)CC12CN(C(=O)C1CC1(C)C)C2)C(=O)NCCCCCN (some centres unmarked) [I-57] |  | > 10 µM | 
10 to 100 nM | COCC1CCCN(C(=O)[C@@H](NC(=O)[C@H]2CN(C(=O)c3cnn(Cc4ccccc4)c3)CC23CN(C(=O)[C@H]2CC2(C)C)C3)[C@@H](C)OCC2CCCCC2)C1 (some centres unmarked) [I-111] |  | ≤ 0.5 µM | 0.5 to 5 µM
≤ 10 nM | C[C@@H](OCC1CCCCC1)[C@H](NC(=O)[C@@H]1CN(C(=O)c2cnn(Cc3ccccc3)c2)CC12CN(C(=O)[C@H]1CC1(C)C)C2)C(=O)N1CCC[C@H](N)C1 [I-150A] |  | 0.5 to 5 µM | 
≤ 10 nM | C[C@@H]1C[C@H](C)CN(C(=O)[C@@H](NC(=O)[C@@H]2CN(C(=O)c3cn[nH]c3)CC23CN(C(=O)[C@H]2CC2(C)C)C3)[C@@H](C)OCC2CCCCC2)C1 [I-173A] |  | ≤ 0.5 µM | 0.5 to 5 µM
≤ 10 nM | C[C@@H](OCC1CCCCC1)[C@H](NC(=O)[C@@H]1CN(C(=O)c2cncs2)CC12CN(C(=O)[C@H]1CC1(C)C)C2)C(=O)N1CCC(F)(F)CC1 [I-192A] |  | ≤ 0.5 µM | ≤ 0.5 µM
≤ 10 nM | CC(=O)N[C@H]1CCCN(C(=O)[C@@H](NC(=O)[C@@H]2CN(C(=O)c3cncs3)CC23CN(C(=O)[C@H]2CC2(C)C)C3)[C@@H](C)OCC2CCCCC2)C1 [I-330] |  | 5 to 10 µM | 0.5 to 5 µM
100 to 1000 nM | C[C@@H](OCC1CCOCC1)[C@@H](COC(F)F)NC(=O)[C@@H]1CN(C(=O)c2cncs2)CC12CN(C(=O)[C@H]1CC1(C)C)C2 [I-441] |  |  | > 20 µM
≤ 10 nM | C[C@@H](OCC1CCOCC1)[C@H](NC(=O)[C@@H]1CN(C(=O)c2cncs2)CC12CN(C(=O)[C@H]1CC1(C)C)C2)C(=O)N1CCC(c2ccncc2)CC1 [I-442] |  |  | 5 to 20 µM
≤ 10 nM | C[C@@H](OCC1CCC(F)(F)CC1)[C@H](NC(=O)[C@@H]1CN(C(=O)c2cncs2)CC12CN(C(=O)[C@H]1CC1(C)C)C2)C(=O)N1CC2CCC(C1)O2 [I-469] |  | 0.5 to 5 µM | ≤ 0.5 µM
